Test results: US12378320B2, “Methods for treating pancreatitis” (Cold Spring Harbor Laboratory, priority 2018, dated 2025)

Key:
C^PDX;R^LSL;F mice = test: CA19-9 mediated pancreatitis in Dox-treated C^PDX;R^LSL;F mice (H&E, serum amylase and lipase, pEGFR IHC); format: in vivo, mouse
Procedure: All animal experiments were conducted in accordance with procedures approved by the IACUC at Cold Spring Harbor Laboratory. Mice were enrolled onto experimental studies between 6 and 8 weeks of age. Mice were administered Doxycycline through drinking water (0.5-2 mg/ml) supplemented with 10 mg/ml Sucrose for study durations up to one week. […] EdU (300 μg, Santa Cruz) was intraperitoneally administered bi-daily for three consecutive days. Cerulein was administered in 8 hourly doses of 200 μl (10 μg/ml) intraperitoneally for 48 hours and C57Bl/6J mice were allowed to recover for 24 or 72 hours.
Formalin-fixed, paraffin-embedded blocks were sectioned and de-paraffinized. Antigen retrieval was performed in Citrate buffer for 6 minutes in a pressure cooker unless otherwise specified. […] The slides were then rinsed in tap water and transferred to the Cadenza system. Slides were blocked in 3% BSA in TBST for one hour at room temperature and incubated in primary antibody overnight. Slides were washed three times in TBST, then incubated in horse radish peroxidase-conjugated secondary antibody for one hour at room temperature. The slides were washed three times in TBST and disassembled from the Cadenza system. ImmPACT DAB (Vector) was incubated for 1-10 minutes followed by a water wash and incubation in Hematoxylin counterstain. The slides were then dehydrated and coverslipped in cytoseal 60.
Slides were scanned using an Aperio CS2 scanner (Leica) and the total occupied pixel area was calculated in Imagescope (Leica). Affected pancreatitis areas on H&E stained slides were manually annotated and the uninvolved and affected areas were measured. Pancreatitis areas were defined by the presence of infiltrating lymphocytes, acinar intralobular swelling, acinar to ductal metaplasia, fibrosis and fat cell replacement. The number of Ki67-positive nuclei were counted manually in five representative high-powered fields from least four animals per group.
Amylase and Lipase levels in plasma (lithium heparin, BD biosciences) was measured by IDEXX Pathology services. CA19-9 levels were measured using the human cancer biomarker assay (EMD Millipore) on the MagPIX multiplex ELISA platform (Luminex). Blood glucose levels were measured using an Accu-Chek Nano monitor (Roche) on the lateral saphenous vein. […] The CA19-9 coated plates were washed in 0.05% Tween 20 in PBS and blocked in 1% BSA in wash buffer before incubation 10 μl of mouse plasma in a final volume of 100 μl of blocking buffer

C57Bl/6J mice [1] = format: in vivo; conditions: Sucrose or Dox Sucrose, Vehicle or Erlotinib
Procedure: KPC mice (Kras^+/LSL-G12D; Trp53^+/R172H; Pdx1-Cre) have been described previously (Hingorani S R, et al., Cancer Cell. 2003; 4(6):437-50; Hingorani S R, et al., Cancer Cell. 2005; 7(5):469-83) and were backcrossed onto the C57Bl/6J background (The Jackson Laboratory, strain 000664). All animal experiments were conducted in accordance with procedures approved by the IACUC at Cold Spring Harbor Laboratory. Mice were enrolled onto experimental studies between 6 and 8 weeks of age. Mice were administered Doxycycline through drinking water (0.5-2 mg/ml) supplemented with 10 mg/ml Sucrose for study durations up to one week. Doxycycline was administered through chow for experimental studies longer than one week, which is designed to deliver 2-3 mg of doxycycline per day based on the consumption of 4-5 g/day per mouse (Harlan Teklad, dietTD.01306, Doxycycline 625 mg). […] Blood glucose levels were measured using the ACCU-CHECK Nano (Roche) on the 414 lateral saphenous vein.
Amylase and Lipase levels in plasma (lithium heparin, BD biosciences) was measured by IDEXX Pathology services. CA19-9 levels were measured using the human cancer biomarker assay (EMD Millipore) on the MagPIX multiplex ELISA platform (Luminex). Blood glucose levels were measured using an Accu-Chek Nano monitor (Roche) on the lateral saphenous vein. […]

C57Bl/6J mice [2] = test: Cerulein model of acute pancreatitis, immune cell types by flow cytometry; format: in vivo, mouse; conditions: for immune cell type representation in the spleen or lymph nodes / immune cells in the pancreas following induction of pancreatitis: flow cytometry
Procedure: KPC mice (Kras^+/LSL-G12D; Trp53^+/R172H; Pdx1-Cre) have been described previously (Hingorani S R, et al., Cancer Cell. 2003; 4(6):437-50; Hingorani S R, et al., Cancer Cell. 2005; 7(5):469-83) and were backcrossed onto the C57Bl/6J background (The Jackson Laboratory, strain 000664). All animal experiments were conducted in accordance with procedures approved by the IACUC at Cold Spring Harbor Laboratory. Mice were enrolled onto experimental studies between 6 and 8 weeks of age. Mice were administered Doxycycline through drinking water (0.5-2 mg/ml) supplemented with 10 mg/ml Sucrose for study durations up to one week. Doxycycline was administered through chow for experimental studies longer than one week, which is designed to deliver 2-3 mg of doxycycline per day based on the consumption of 4-5 g/day per mouse (Harlan Teklad, dietTD.01306, Doxycycline 625 mg). EdU (300 μg, Santa Cruz) was intraperitoneally administered bi-daily for three consecutive days. Cerulein was administered in 8 hourly doses of 200 μl (10 μg/ml) intraperitoneally for 48 hours and C57Bl/6J mice were allowed to recover for 24 or 72 hours. Blood glucose levels were measured using the ACCU-CHECK Nano (Roche) on the 414 lateral saphenous vein.
Spleens and lymph nodes were mechanically dissociated, homogenized, and passed through a nylon cell strainer (BD Falcon) in FACS buffer (eBioscience). Pancreas were mechanically dissociated and digested with 0.4 mg/mL liberase, 0.05 mg/mL collagenase D, and 0.1 mg/mL DNase I (Roche) in DMEM (Gibco) supplemented with 10% FCS at 37° C. for 30 min and suspensions were passed through a nylon cell strainer.
Staining was performed by incubating cells on a plate shaker, for 15 min at 4° C., with antibodies in FACS buffer (eBioscience). Multicolor flow cytometric analyses were performed using a LSR Fortessa cytometer (BD Biosciences). Gating strategies for all flow cytometric experiments are further described below.

| Compound | ability to substitute for anti-CA19-9 therapy (C^PDX;R^LSL;F mice; Erlotinib 24 hours prior to the induction of pancreatitis) | weight loss (C^PDX;R^LSL;F mice; Erlotinib 24 hours prior to the induction of pancreatitis, humane end point prior to study completion) | pancreatic atrophy at necropsy (C^PDX;R^LSL;F mice; Erlotinib plus Dox) | vacuolization of the acinar compartment by histology (C^PDX;R^LSL;F mice; Erlotinib plus Dox) | relation of the effects to Erlotinib toxicity in normal mice (C57Bl/6J mice [1]) | immune cell type representation in the spleen or lymph nodes (C57Bl/6J mice [2]) | immune cells in the pancreas following induction of pancreatitis (C57Bl/6J mice [2]) | immune cell type representation in the spleen or lymph nodes (C57Bl/6J mice [2]; listed as cerulein) | immune cells in the pancreas following induction of pancreatitis (C57Bl/6J mice [2]; listed as cerulein) | recruitment of T- or B-cells (C57Bl/6J mice [2]; time points examined 1-3 days) |
| --- | --- | --- | --- | --- | --- | --- | --- | --- | --- | --- |
| C#Cc1cccc(Nc2ncnc3cc(OCCOC)c(OCCOC)cc23)c1 [Erlotinib] | unable to substitute | more than 20% | evident | apparent | unrelated to toxicity | – | – | – | – | – |
| Cerulein | – | – | – | – | – | without change | influx of inflammatory monocytes and macrophages | without any change | treatment-dependent influx of inflammatory monocytes and macrophages | Neither model exhibited recruitment |
